The test system of this assay is 743489-274-T-PDC complex spheroid viability. The assay is described as follows: Anticancer human tumor 743489-274-T-PDC patient-derived renal cell carcinoma cell line growth inhibition. The note with it: for viability, T/C: stronger effect = lower value; for IC50: curve of compound. An excerpt: Multicellular complex tumor spheroid response to LSD1 Inhibitor Iadademstat in combination with a variety of drugs and investigational agents in selected tumor cell lines
The current study was undertaken to assess response to LSD1 inhibitors in combination with standard-of-care drugs and investigational agents in solid tumor complex spheroid models as well as in the K-562 leukemia. Complex spheroids include a stromal component modeled by human endothelial cells (HUVEC) and fibroblasts modeled by human mesenchymal stem cells (MSCs). The concentration ranges selected for each drug and investigational agent were based upon clinically achievable concentrations if the clinical Cmax of the agent was known.
Compounds. The drugs and investigational agents used in this study are listed on Table 1. All of the agents used, including staurosporine (NSC755774) and gemcitabine (NSC613327), were obtained from the Developmental Therapeutics Program, NCI. FDA-approved anticancer drugs are available from the NCI at http://dtp.nci.nih.gov/branches/dscb/oncology_drugset_explanation.html. Drugs and investigational agents were >95% pure by proton nuclear magnetic resonance (NMR) and liquid chromatography/mass spectrometry (LC/MS). Stock solutions were prepared at 400x in DMSO, stored at -70 degrees C, and diluted in fresh medium prior to their use. The final concentration of DMSO in cell culture wells never exceeded 0.25% (v/v). The FDA-approved anticancer drug set is available from the Developmental Therapeutics Program at https://dtp.cancer.gov/organization/dscb/obtaining/available_plates.htm. All drugs and investigational agents were tested over a range starting from a high concentration at or near the clinical Cmax and decreasing in half-log increments. If the clinical Cmax for an agent had not been determined, the highest concentration tested was 10 microM.
Cell Lines. The patient-derived cancer cell (PDC) lines: 292921-168-R-J2-PDC, K24384-001-R-PDC, and 521955-158-R2-J5-PDC pancreatic carcinomas, 556581-035-R-J1 ovarian carcinoma, 324938-238-R-J1-PDC, 855422-203-R-J1-PDC and 883617-216-R-J1-PDC urothelial bladder carcinomas, 743489-274-T-PDC renal cell carcinoma, 138582-R-J1 Merkel cell tumor, K60290-347-R-J1 and K57222-313-R-J1-PDC glioblastomas, 653999-131-R-J2-PDC, LG0703-F948-PDC, and 349418-098-R-PDC non-small cell lung carcinomas, 885512-296-R-J2-PDC, 171881-019-R-J1-PDC breast carcinomas and 186277-243-T-J2-PDC and 233499-124-R-J2-PDC colon carcinomas were obtained from the NCI Patient-Derived Models Repository (PDMR, https://pdmr.cancer.gov). The established cell lines NCI/ADR-RES (RRID:CVCL_14520 and OVCAR-5 (RRID:CVCL_1628) ovarian carcinomas, 786-O (RRID:CVCL_1051) and A498 (RRID:CVCL_A498) renal cell carcinoma, NCI-H211 (ATCC, cat. CRL-5824; RRID:CVCL_1529), NCI-H196 (ATCC, cat. CRL-5823, RRID:CVCL_1509), SW 1271 (ATCC, cat. CRL-2177, RRID:CVCL_1716) and NCI-H1876 (ATCC, cat. CRL-5902, RRID:CVCL_1503) small cell lung carcinomas, MDA-MB-231 (RRID:CVCL_0062) and MDA-MB-468 (RRID:CVCL_0419)breast carcinomas (10-12). Pooled donor human umbilical vein endothelial cells (HUVEC, Lonza, cat. CC-2519) and human mesenchymal stem cells (hMSC, Lonza, cat. PT-2501) were purchased from Lonza (Walkersville, MD).
Cell Culture. All cells were maintained in an incubator at 37 degrees C and 5% CO2 with 95% humidity. The PDC lines were cultured according to standard operating procedures established by the NCI PDMR (https://pdmr.cancer.gov). Briefly all PDCs were thawed and cultured in Matrigel-coated flasks prepared with a working solution of 1X Ham's F-12 nutrient mix, without supplementation (Invitrogen, Waltham, MA, cat. 11765054), 100 U/mL penicillin-streptomycin (Invitrogen, cat. 15140122), and 2.5% Matrigel (Corning Inc., Corning, NY, cat. 354248) for the first three passages. […]

The structures appear in SMILES notation. Several values for one entry are separate records, joined by “and”; a condition that tells them apart may be missing. Equal entries are not always repeated.
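Note: spheroids exposed to compounds for 7 days before readout.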

For `CC(C)CC(NC(=O)C(Cc1ccccc1)NC(=O)c1cnccn1)B(O)O` (stereo not drawn), the half-maximal inhibitory concentration (IC50) is 7.31 nM and 8.09 nM. Moreover, the viability, T/C (compound 0.000316 µM) was 102% and 104%. The viability, T/C (compound 0.001 µM) was 93.9% and 105%. Also, for the setting “compound 0.00316 µM”, the viability, T/C is 106% and 94.2%. Besides, the viability, T/C (compound 0.01 µM) was 31% and 40%. Moreover, the viability, T/C (compound 0.0316 µM) is 26.9% and 31.4%. Further, under “compound 0.1 µM”, the viability, T/C was 24.4% and 27.6%.
Consider `CC(C)CC(NC(=O)CNC(=O)c1cc(Cl)ccc1Cl)B1OC(=O)CC(CC(=O)O)(C(=O)O)O1` (stereo not drawn), for which the IC50 was > 100 nM and 84.7 nM. For the setting “compound 0.000316 µM”, the viability, T/C is 97.9% and 109%. Under “compound 0.001 µM”, the viability, T/C is 89.1% and 112%. Further, where the note is “compound 0.00316 µM”, the viability, T/C was 99.5% and 94.1%. Moreover, under “compound 0.01 µM”, the viability, T/C is 84.9% and 83.3%. Besides, for the setting “compound 0.0316 µM”, the viability, T/C is 84% and 76.2%. Also, the viability, T/C (compound 0.1 µM) is 58.8% and 44.4%.
`CC1(C)CCC(CN2CCN(c3ccc(C(=O)NS(=O)(=O)c4ccc(NCC5CCOCC5)c([N+](=O)[O-])c4)c(Oc4cnc5[nH]ccc5c4)c3)CC2)=C(c2ccc(Cl)cc2)C1`: the IC50 is above 10000 nM. For the same molecule, the viability, T/C (compound 0.0316 µM) was 90.8% and 100%. Also, the viability, T/C (compound 0.1 µM) is 108%. In addition, the viability, T/C (compound 0.316 µM) was 104% and 109%. In addition, the viability, T/C (compound 1 µM) was 113% and 111%. Also, the viability, T/C (compound 3.16 µM) is 128% and 106%. The viability, T/C (compound 10 µM) was 120% and 122%.
Turning to `CC1COCCN1c1cc(-c2ccnn2C)c2ccnc(-c3ccn[nH]3)c2n1` (stereo not drawn), the IC50 is above 1000 nM. The viability, T/C (compound 0.00316 µM) was 102% and 81.5%. Also, the viability, T/C (compound 0.01 µM) came to 107%. The viability, T/C (compound 0.0316 µM) was 78.8% and 87.5%. The viability, T/C (compound 0.1 µM) is 70.9% and 71.9%. The viability, T/C (compound 0.316 µM) is 71.5% and 56.4%. Also, the viability, T/C (compound 1 µM) is 64.2% and 53.2%.
For the molecule `CCN(c1cc(-c2ccc(CN3CCOCC3)cc2)cc(C(=O)NCc2c(C)cc(C)[nH]c2=O)c1C)C1CCOCC1`, the 50% inhibitory concentration (IC50) was above 3000 nM. Besides, the viability, T/C (compound 0.00949 µM) is 106% and 107%. The viability, T/C (compound 0.03 µM) is 94.5% and 105%. Further, for the setting “compound 0.0949 µM”, the viability, T/C was 87.8% and 92.8%. Moreover, for the setting “compound 0.3 µM”, the viability, T/C was 97.2% and 111%. Also, under “compound 0.949 µM”, the viability, T/C is 98.5% and 105%. For the same molecule, the viability, T/C (compound 3 µM) was 95.9% and 105%.
In the case of `CC[C@@]1(O)C(=O)OCc2c1cc1n(c2=O)Cc2cc3c(CN(C)C)c(O)ccc3nc2-1`, the IC50 is above 100 nM. For the same molecule, the viability, T/C (compound 0.000316 µM) is 103% and 92.9%. In addition, the viability, T/C (compound 0.001 µM) is 104% and 83.4%. For the same molecule, for the setting “compound 0.00316 µM”, the viability, T/C was 96.5% and 72.1%. For the same molecule, the viability, T/C (compound 0.01 µM) was 86.4% and 76.7%. Also, under “compound 0.0316 µM”, the viability, T/C was 75.1% and 60.3%. Also, the viability, T/C (compound 0.1 µM) was 63.7% and 57.8%.
In the case of `CCc1c2c(nc3ccc(O)cc13)-c1cc3c(c(=O)n1C2)COC(=O)[C@]3(O)CC`, the IC50 was 20.7 nM and 5.36 nM. Also, the viability, T/C (compound 0.000949 µM) is 88.1% and 71.3%. The viability, T/C (compound 0.003 µM) was 68% and 54.2%. For the same molecule, for the setting “compound 0.00949 µM”, the viability, T/C is 61.9% and 44.5%. Besides, the viability, T/C (compound 0.03 µM) is 40.2% and 45.4%. For the same molecule, the viability, T/C (compound 0.0949 µM) is 45.4% and 44.3%. The viability, T/C (compound 0.3 µM) was 43.2% and 39.3%.
As for `COc1cc(C2c3cc4c(cc3C(OC3OC5COC(C)OC5C(O)C3O)C3COC(=O)C23)OCO4)cc(OC)c1O` (stereo not drawn), the IC50 is above 3000 nM. The viability, T/C (compound 0.00949 µM) is 98.2% and 111%. Further, under “compound 0.03 µM”, the viability, T/C is 114% and 112%. The viability, T/C (compound 0.0949 µM) is 70.3% and 81.1%. The viability, T/C (compound 0.3 µM) was 92.8% and 99.4%. Also, the viability, T/C (compound 0.949 µM) was 98.9% and 88.8%. Further, the viability, T/C (compound 3 µM) was 82% and 91.5%.
On to `COc1cc(Nc2ncc3c(n2)-c2ccc(Cl)cc2C(c2c(F)cccc2OC)=NC3)ccc1C(=O)O`, for which the IC50 was above 1000 nM. The viability, T/C (compound 0.00316 µM) was 102% and 91.3%. Further, where the note is “compound 0.01 µM”, the viability, T/C is 91.3% and 102%. For the same molecule, the viability, T/C (compound 0.0316 µM) is 89.6% and 92%. Also, the viability, T/C (compound 0.1 µM) is 92.6% and 90.8%. Also, under “compound 0.316 µM”, the viability, T/C was 94.2% and 87.2%. Further, for the setting “compound 1 µM”, the viability, T/C is 91.7% and 67.7%.

As a reminder, the viability, T/C is the result in the treated group divided by that in the control group, in per cent. What is called IC50 is the concentration at which inhibition is half-maximal.

Values taken from PubChem BioAssay AID1918942 (Molecular Pharmacology Branch, DTP, NCI, 2023).
